Patent publication US20250382631A1, “PROTAC-CID SYSTEMS FOR USE IN MULTIPLEX GENE REGULATION” (William Marsh Rice University, priority 2022, published 2025)

Assays:
Type in all cases: cell-based, human
[1] = system: pUAS-2-driven Fluc in HEK293T cells co-infected with Virus a and Virus b; test: AAV infection of HEK293T cells, luciferase bioluminescence; settings: 100 nM MZ1, three days post-infection, FIG. 4B
Procedure: AAV infection on HEK293T cells. Before infection, HEK293T cells were seeded into 96 well plates (Corning no. 3610). When the confluency reaching 50%, 1 μL of each purified AAV virus (Virus a and Virus b in FIGS. 4 and 19) were added into the supernatant of HEK293T cells. 100 nM of MZ1 or DMSO was added into the supernatant. Three days post-infection, cells with 80 μL medium were treated with 40 μL lysis buffer (500 mM DTT, 10 mM coenzyme A, 100 mM ATP, 80 mg/mL D-luciferin, Triton lysis buffer (0.1082 M Tris-HCl, 0.0419 M Tris-Base, 75 mM NaCl, 3 mM MgCl2)). To lysis the cells Plate was shaken by plate reader Infinite M200 (TECAN) with 20 seconds in “Orbital” mode with frequency of 432 rpm and Amplitude of 1 mm. Relative light units of luminescence was recorded by plate reader Infinite M200 (TECAN) with 1000 ms integration time using Megellan v1.7 (TECAN).

[2] = system: endogenous BRD4 (BRD4S, BRD4L); test: Immunoblot of endogenous BRD4 in HEK293T cells; settings: MZ1 20 nM and 100 nM, 48 h, HEK293T with MZ1 PROTAC-CID, FIG. 22
Source text: Immunoblots and RT-qPCR. Mice liver tissues or culture cells were lysed in RIPA buffer (Abcam no. ab156034) supplemented with phosphatase inhibitor (Thermo Fisher Scientific no. PIA32957) and protease inhibitors (Fishers cientific no. A32965). Lysates were resolved by 10% Tris-glycine SDS-PAGE, transferred to PVDF membrane (Bio-Rad no. 1620177), and blotted with antibodies BRD4 (Abcam, ab128874), GAPDH (Cell Signaling Technology, 2118L), luciferase (ABclonal, requested), Ran (ABclonal, A0976), Hsp90 (Cell Signaling Technology, 4874). Images were acquired using LumiQuant AC600 (Acuronbio Technology Inc), quantification analysis was processed by ImageJ software. Trizol reagent (Sigma no. T9424) was used to extract total RNA from liver. RNAs were purified using RNeasy Mini kit (QIAGEN no. 4106). The quality and concentration of total RNA were checked on NanoDrop™ 2000/2000c Spectrophotometers (Thermo Fisher Scientific no. ND2000LAPTOP). Reverse transcription of total RNA was performed using a Applied Biosystems™ High-Capacity cDNA Reverse Transcription Kit (Thermo Fisher Scientific no. 4368813) and qPCR was conducted with SYBR Green Master Mix (Abclonal no. RK21203) on QuantStudio 6 Real-time PCR system (Thermo Fisher Scientific).

[3] = system: endogenous HEK3 locus in HEK293T cells; test: Inducible prime editing, His6 Tag insertion (Sanger sequencing, TIDE); settings: high TRE3G-driven PE2 plasmid dose (120 ng per well), 100 nM dTAG-13, 3 days, FIG. 3H
Procedure: Prime editing measurement. HEK293T cells were seeded into 96 well plates (Corning no. 3598). When the cells reach 20% confluency, 265 ng to 290 ng plasmids (See Table 1 for plasmid dosage used in each condition) were firstly mixed with 25 μL DMEM. 0.5 μL Lipofectamine 2000 (Life Technology no. 11661089) was incubated with 25 μL DMEM for 5 min. Next, plasmid solution was mixed with the Lipofectamine 2000 solution for 20 min and added into the cells gently. After 12 h, the supernatants were changed with fresh 10% FBS (Thermo Fisher Scientific no. 10437028) DMEM medium (Thermo Fisher Scientific no. 10569044) supplied with Puromycin (10 μg/mL Thermo Fisher Scientific no. A1113803) and 100 nM dTAG-13 (TOCRIS no. 6605/5) or DMSO (Sigma, no. D8418). 3 days post-induction, the supernatant was removed and supplied with 100 μL lysis buffer (10 mM tris-HCl (pH=7.5), 0.05% SDS, and proteinase K (25 μg/mL, Thermo Fisher Scientific no. 01169965)) followed by 37° C. 1 h, 58° C. 30 min and inactivated at 95° C. for 20 min. […] The insertion efficiency was analyzed online in TIDE (https://tide.nki.nl/) (Brinkman et al., 2018) with the setting (left boundary=100, Decomposition window (115-685 bp), Indel size range (28 bp), P-value threshold=0.001).

[4] = system: three different genomic sites in HEK293T cells; test: Inducible C-to-T base editing by A3G5.13 (Sanger sequencing, EditR); settings: CBE A3G5.13 with dTAG-13 PROTAC-CID, 100 nM dTAG-13, 3 days, across three genomic sites, FIG. 3C
Procedure: Base editing measurement. Before transfection, HEK293T cells were plated into 96 well plates (Corning no. 3598) with 20% confluency. 0.5 μL Lipofectamine 2000 (Life Technology no. 11661089) was mixed with 25 μL DMEM for 5 mins incubation. 80 ng to 210 ng Plasmids (See Table 1 for plasmid dosage used in each condition) were then mixed with 25 μL DMEM and added into the Lipofectamine 2000 and DMEM mixture for 20 min incubation at the room temperature. Mixture was added into cells gently. After 12 h, supernatants were changed with fresh 10% FBS (Thermo Fisher Scientific no. 10437028) DMEM medium (Thermo Fisher Scientific no. 10569044), Puromycin (10 μg/mL Thermo Fisher Scientific no. A1113803) and supplied with 100 nM dTAG-13 (TOCRIS no. 6605/5) or DMSO (Sigma, no. D8418). After 3 days, cell medium was removed and cells were treated with 100 μL lysis buffer (10 mM tris-HCl (pH=7.5), 0.05% SDS, and proteinase K (25 μg/mL, Thermo Fisher Scientific no. 01169965)) followed by 37° C. 1 h, 58° C. 30 min and inactivated at 95° C. for 20 min. The cell lysis was amplified by 2×Phanta Max Master Mix (Vazyme no. p515) following the program: 95° C. 3 min, 95° C. 15s and 58° C. 15s with 72° C. for 35 cycles, and 72° C. 5 min. The editing efficiency was measured by Sanger sequencing and analyzed by EditR (https://moriaritylab.shinyapps.io/editr_v10/) (Kluesner et al., 2018).

Compound	increase in luciferase bioluminescence intensity [1]	degradation of endogenous BRD4 isoforms [2]	prime editing efficiency (His6 Tag insertion) [3]	C-to-T editing [4]
Cc1ncsc1-c1ccc(CNC(=O)[C@@H]2C[C@@H](O)CN2C(=O)[C@@H](NC(=O)COCCOCCOCCNC(=O)C[C@@H]2N=C(c3ccc(Cl)cc3)c3c(sc(C)c3C)-n3c(C)nnc32)C(C)(C)C)cc1 [MZ1]	more than 60 fold	only observed the degradation of the short isoform of BRD4 (BRD4S), not the conventional long isoform BRD4 (BRD4L)	–	–
CC[C@H](C(=O)N1CCCC[C@H]1C(=O)O[C@H](CCc1ccc(OC)c(OC)c1)c1ccccc1OCC(=O)NCCCCCCOc1cccc2c1C(=O)N(C1CCC(=O)NC1=O)C2=O)c1cc(OC)c(OC)c(OC)c1 (stereo partly shown) [dTAG-13]	–	–	more than 20%	30-50%
